Tests used:
Experiment in all cases: relative viability (nuclei count vs DMSO), 5 days (fraction); higher = more cells survive
MLN4924 + Alpelisib = compound: NS(=O)(=O)OC[C@@H]1C[C@@H](n2ccc3c(N[C@H]4CCc5ccccc54)ncnc32)C[C@@H]1O [MLN4924] + Cc1nc(NC(=O)N2CCC[C@H]2C(N)=O)sc1-c1ccnc(C(C)(C)C(F)(F)F)c1 [Alpelisib] (partner 2 µM)
Outline: (§1)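 Five library-drug doses in √10 steps were combined with a fixed anchor-drug dose, or a single drug was given alone, by pin tool to lung cancer cell lines in 1536-well plates the day after seeding. Nuclei were stained and counted after 5 days. Relative viability is the nuclei count in treated wells over that in vehicle wells, taken as the median of duplicate plates.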

MLN4924 + Crizotinib = compound: NS(=O)(=O)OC[C@@H]1C[C@@H](n2ccc3c(N[C@H]4CCc5ccccc54)ncnc32)C[C@@H]1O [MLN4924] + C[C@@H](Oc1cc(-c2cnn(C3CCNCC3)c2)cnc1N)c1c(Cl)ccc(F)c1Cl [Crizotinib] (partner 1 µM)
Outline: as §1

MLN4924 + Foretinib = compound: NS(=O)(=O)OC[C@@H]1C[C@@H](n2ccc3c(N[C@H]4CCc5ccccc54)ncnc32)C[C@@H]1O [MLN4924] + COc1cc2c(Oc3ccc(NC(=O)C4(C(=O)Nc5ccc(F)cc5)CC4)cc3F)ccnc2cc1OCCCN1CCOCC1 [Foretinib] (partner 0.25 µM)
Outline: as §1

MLN4924 + OSI-027 = compound: NS(=O)(=O)OC[C@@H]1C[C@@H](n2ccc3c(N[C@H]4CCc5ccccc54)ncnc32)C[C@@H]1O [MLN4924] + COc1cccc2cc(-c3nc([C@H]4CC[C@H](C(=O)O)CC4)n4ncnc(N)c34)[nH]c12 [OSI-027] (partner 0.5 µM)
Outline: as §1

| Cell Line | relative viability (MLN4924 + Alpelisib; first compound 0.04 µM) | relative viability (MLN4924 + Alpelisib; first compound 0.1265 µM) | relative viability (MLN4924 + Alpelisib; first compound 0.4 µM) | relative viability (MLN4924 + Alpelisib; first compound 1.265 µM) | relative viability (MLN4924 + Alpelisib; first compound 4 µM) | relative viability (MLN4924 + Crizotinib; first compound 0.04 µM) | relative viability (MLN4924 + Crizotinib; first compound 0.1265 µM) | relative viability (MLN4924 + Crizotinib; first compound 0.4 µM) | relative viability (MLN4924 + Crizotinib; first compound 1.265 µM) | relative viability (MLN4924 + Crizotinib; first compound 4 µM) | relative viability (MLN4924 + Foretinib; first compound 0.04 µM) | relative viability (MLN4924 + Foretinib; first compound 0.1265 µM) | relative viability (MLN4924 + Foretinib; first compound 0.4 µM) | relative viability (MLN4924 + Foretinib; first compound 1.265 µM) | relative viability (MLN4924 + Foretinib; first compound 4 µM) | relative viability (MLN4924 + OSI-027; first compound 0.04 µM) | relative viability (MLN4924 + OSI-027; first compound 0.1265 µM) | relative viability (MLN4924 + OSI-027; first compound 0.4 µM) | relative viability (MLN4924 + OSI-027; first compound 1.265 µM) | relative viability (MLN4924 + OSI-027; first compound 4 µM) |
| --- | --- | --- | --- | --- | --- | --- | --- | --- | --- | --- | --- | --- | --- | --- | --- | --- | --- | --- | --- | --- |
| RERF-LC-KJ | 0.89 | 0.815 | 0.206 | 0.183 | 0.237 | 0.786 | 0.471 | 0.225 | 0.221 | 0.207 | 0.745 | 0.482 | 0.247 | 0.202 | 0.216 | 0.576 | 0.52 | 0.217 | 0.175 | 0.224 |
| SK-LU-1 | 1.1 | 0.572 | 0.281 | 0.145 | 0.194 | 0.951 | 0.802 | 0.236 | 0.182 | 0.201 | 0.924 | 0.615 | 0.26 | 0.14 | 0.174 | 0.366 | 0.331 | 0.177 | 0.128 | 0.139 |
| SK-MES-1 | 0.99 | 0.882 | 0.87 | 0.232 | 0.185 | 1.02 | 0.842 | 0.702 | 0.228 | 0.22 | 1.11 | 1.11 | 0.646 | 0.213 | 0.239 | 0.678 | 0.585 | 0.266 | 0.133 | 0.16 |
| SW 1573 | 1.01 | 0.974 | 0.957 | 0.155 | 0.0628 | 0.802 | 0.734 | 0.748 | 0.0862 | 0.0778 | 0.967 | 0.982 | 0.875 | 0.156 | 0.0921 | 0.684 | 0.666 | 0.191 | 0.0527 | 0.0802 |
